# Experimental data reported in patent US20200362380A1, “Novel Biomolecule and Methods of Manufacturing Thereof” (priority 2018, published 2020).
# Tested on: plants
# Experiment: auxin effect on plants (media based agriculture)
# Assay type: in vivo
# Details: media based agriculture with and without soil; statement in words only
# Excerpt: The resulting monomer can be leached through the media column and recuperated in pure form after filtering out any bacteria using appropriate filtration such as diatomaceous earth or filter paper. This can also be carried out in media based agriculture both with and without soil.
substance,measurement,value
3-4 deoxy-glucosamine [monomer],auxin effect on plants,pronounced auxin effect
